# Test results from PMC9154192 (PLoS Biology, 2022).
# “And” between values parts separate entries of the source, which are not always exact repeats. Equal values may be shown once. Read-outs that look alike come from different tables or passages of the source.
# Key:
# M. tuberculosis H37Rv [1] = assay type: cell-based, Mycobacterium tuberculosis; conditions: for RFU/200 μl (replicates1-3), single values / RFU/ml (×104) / RFU/200 μl (average): Fig 2A
# XDR M. tuberculosis = assay type: cell-based, Mycobacterium tuberculosis
# M. tuberculosis H37Rv [2] = assay: Luminescence-based microbial cell viability assay; parameters: species or system Mycobacterium tuberculosis; conditions: for RLU/50ul (replicates1-3), single values / RLU/ml (×100) / RLU/50ul (average): Fig 2C
# M. tuberculosis H37Rv [3] = assay type: in vivo, BALB/c mice
# M. tuberculosis H37Rv [4] = assay type: in vivo, BALB/c mice; parameters: Efficacy in BALB/C mouse model of pulmonary tuberculosis, Average / Efficacy in BALB/C mouse model of pulmonary tuberculosis, values of mice 1-6: unit not given here; conditions: Fig 4C, group dose 30, 6 mice
# intestinal microbiome = assay: Gut microbiome, 16s rRNA gene-based metagenomics analysis of feces; assay type: in vivo, BALB/c mice
# Experimental: Six-week-old BALB/c female mice were used for this study (6 mice for each group). Each drug was administered orally at 30 mg/kg once daily for 7 days. Stool was collected, and 16 rRNA gene-based metagenomics analysis was performed. Corn oil was used as the vehicle. The drug-free group received corn oil only. This animal experiment was conducted with the approval of the IACUC of the Soonchunhyang University (approval number: SCH21-0011). Microbiome analysis of collected feces was carried out as previously described with some modifications. Total DNA was extracted from the stool using the QIAamp DNA stool mini kit (Qiagen, Germany) after mechanical disruption using lysing matrix B tubes (MP Biomedicals, USA). V4 region of 16S RNA gene was amplified from extracted DNA with the following primers: forward primer ([…]) and reverse primer ([…]). PCR was performed using the Kappa HiFi hot start kit (KAPA Biosystems, USA) for 16s gene amplification and library preparation. A dsDNA HS assay kit and Qubit 4 fluorimeter (Invitrogen, USA) were used for DNA quantification. After each step, quality was checked using Agilent High Sensitivity DNA Kit and Agilent Bioanalyzer 2100 (Agilent Technologies, USA). Clean-up was performed using AMPure XP beads (Beckman Coulter, UK). The metagenomic library was prepared using a Nextera XT DNA Library Prep Kit (Illumina, USA) and loaded into an iSeq-100 reagent cartridge (Illumina, USA) together with a PhiX Control library (Illumina, USA). A 300-bp paired-end sequencing was performed on an iSeq-100 platform (Illumina, USA). Sequencing data were analyzed using the EzBioCloud server (Chunlab, Korea).
# [5] = drug conc. 0.19, average of each replicate set
# [6] = drug conc. 0.39, average of each replicate set
# [7] = drug conc. 0.78, average of each replicate set
# [8] = 30 mg/kg oral once a day for 7 days, BALB/c mice, feces
structure (smiles),measurement,setting,value
"NNC(=O)c1ccncc1 [INH, isoniazid, reference compound]","RFU/200 μl (replicates1-3), single values",M. tuberculosis H37Rv [1]; drug conc. 0.19,54850 RFU/200 μl and 54780 RFU/200 μl and 48860 RFU/200 μl and 48850 RFU/200 μl and 51920 RFU/200 μl and 53630 RFU/200 μl and 53710 RFU/200 μl and 53510 RFU/200 μl and 54820 RFU/200 μl
same,RFU/ml (×104),M. tuberculosis H37Rv [1]; drug conc. 0.19,26.4 RFU/ml (×104)
same,RFU/200 μl (average),M. tuberculosis H37Rv [1]; [5],49877 RFU/200 μl and 53617 RFU/200 μl and 54817 RFU/200 μl
same,"RFU/200 μl (replicates1-3), single values",M. tuberculosis H37Rv [1]; drug conc. 0.39,12610 RFU/200 μl and 12620 RFU/200 μl and 10050 RFU/200 μl and 11010 RFU/200 μl and 12080 RFU/200 μl and 10560 RFU/200 μl and 10740 RFU/200 μl and 10520 RFU/200 μl and 12650 RFU/200 μl
same,RFU/ml (×104),M. tuberculosis H37Rv [1]; drug conc. 0.39,5.7 RFU/ml (×104)
same,RFU/200 μl (average),M. tuberculosis H37Rv [1]; [6],11047 RFU/200 μl and 10607 RFU/200 μl and 12627 RFU/200 μl
same,"RFU/200 μl (replicates1-3), single values",M. tuberculosis H37Rv [1]; drug conc. 0.78,7570 RFU/200 μl and 7470 RFU/200 μl and 7230 RFU/200 μl and 7160 RFU/200 μl and 7680 RFU/200 μl and 7340 RFU/200 μl and 7150 RFU/200 μl and 7460 RFU/200 μl and 7540 RFU/200 μl
same,RFU/ml (×104),M. tuberculosis H37Rv [1]; drug conc. 0.78,3.7 RFU/ml (×104)
same,RFU/200 μl (average),M. tuberculosis H37Rv [1]; [7],7357 RFU/200 μl and 7317 RFU/200 μl and 7527 RFU/200 μl
same,concentration with significant antitubercular effect,M. tuberculosis H37Rv [1]; fluorescence-based assay,0.78 µg/mL and 0.39 µg/mL
same,"RFU/200 μl (replicates1-3), single values",XDR M. tuberculosis,29490 RFU/200 μl and 29760 RFU/200 μl and 24060 RFU/200 μl and 22090 RFU/200 μl and 22930 RFU/200 μl and 29240 RFU/200 μl and 29310 RFU/200 μl and 29280 RFU/200 μl and 29510 RFU/200 μl and 51780 RFU/200 μl and 52060 RFU/200 μl and 51260 RFU/200 μl and 49980 RFU/200 μl and 50610 RFU/200 μl and 51510 RFU/200 μl and 51660 RFU/200 μl and 51460 RFU/200 μl and 51820 RFU/200 μl and 56880 RFU/200 μl and 57100 RFU/200 μl and 53750 RFU/200 μl and 53730 RFU/200 μl and 46980 RFU/200 μl and 53520 RFU/200 μl and 53690 RFU/200 μl and 53460 RFU/200 μl and 56940 RFU/200 μl
same,RFU/ml (×104),XDR M. tuberculosis,13.6 RFU/ml (×104) and 25.7 RFU/ml (×104) and 27.0 RFU/ml (×104)
same,antitubercular effect,XDR M. tuberculosis,did not show a significant antitubercular effect
same,"RLU/50ul (replicates1-3), single values",M. tuberculosis H37Rv [2]; drug conc. 0.19,1310 RLU/50ul and 1170 RLU/50ul and 1890 RLU/50ul and 1990 RLU/50ul and 2130 RLU/50ul and 1740 RLU/50ul and 1790 RLU/50ul and 1620 RLU/50ul and 1290 RLU/50ul
same,RLU/ml (×100),M. tuberculosis H37Rv [2]; drug conc. 0.19,331.8 RLU/ml (×100)
same,RLU/50ul (average),M. tuberculosis H37Rv [2]; [5],2003 RLU/50ul and 1717 RLU/50ul and 1257 RLU/50ul
same,"RLU/50ul (replicates1-3), single values",M. tuberculosis H37Rv [2]; drug conc. 0.39,340 RLU/50ul and 310 RLU/50ul (2×) and 220 RLU/50ul and 250 RLU/50ul and 320 RLU/50ul (3×) and 360 RLU/50ul
same,RLU/ml (×100),M. tuberculosis H37Rv [2]; drug conc. 0.39,61.1 RLU/ml (×100)
same,RLU/50ul (average),M. tuberculosis H37Rv [2]; [6],263 RLU/50ul and 317 RLU/50ul and 337 RLU/50ul
same,"RLU/50ul (replicates1-3), single values",M. tuberculosis H37Rv [2]; drug conc. 0.78,120 RLU/50ul (3×) and 100 RLU/50ul and 130 RLU/50ul (2×) and 180 RLU/50ul and 150 RLU/50ul and 140 RLU/50ul
same,RLU/ml (×100),M. tuberculosis H37Rv [2]; drug conc. 0.78,26.4 RLU/ml (×100)
same,RLU/50ul (average),M. tuberculosis H37Rv [2]; [7],143 RLU/50ul and 137 RLU/50ul and 117 RLU/50ul
same,concentration with significant antitubercular effect,M. tuberculosis H37Rv [2]; luminescence-based assay,0.78 µg/mL and 0.39 µg/mL
same,"Efficacy in BALB/C mouse model of pulmonary tuberculosis, Average","M. tuberculosis H37Rv [3]; Fig 4A, group dose 30, 6 mice",4583
same,reduction of bacterial load in lungs compared to drug-free group,"M. tuberculosis H37Rv [3]; mouse, in vivo",similar
same,granulomatous lesions in lung sections (HE staining),"M. tuberculosis H37Rv [3]; mouse, in vivo, po",limited number of small granulomatous lesions
same,"Efficacy in BALB/C mouse model of pulmonary tuberculosis, Average",M. tuberculosis H37Rv [4],226667
same,"beta set-significance analysis, pair-wise comparison of gut microbiome",intestinal microbiome; [8],not significant
same,difference in phylum or class level taxa compared to drug-free group,intestinal microbiome; [8],did not significantly differ
same,phylogenetic diversity compared to drug-free control group,intestinal microbiome; [8],no significant change
"CO[C@H]1/C=C/O[C@@]2(C)Oc3c(C)c(O)c4c(O)c(c(/C=N/N5CCN(C)CC5)c(O)c4c3C2=O)NC(=O)/C(C)=C\C=C\[C@H](C)[C@H](O)[C@@H](C)[C@@H](O)[C@@H](C)[C@H](OC(C)=O)[C@@H]1C [RIF, rifampicin, reference compound]","beta set-significance analysis, pair-wise comparison of gut microbiome","intestinal microbiome; mouse, in vivo",significant
same,difference in phylum or class level taxa compared to drug-free group,"intestinal microbiome; mouse, in vivo",significant differences
same,phylogenetic diversity compared to drug-free control group,"intestinal microbiome; mouse, in vivo",significantly decreased
